The results in this text go back to US20240400577A1, “MODULATORS OF PROTEIN KINASES” (VIBLIOME THERAPEUTICS, LLC, priority 2021, published 2024).

What all share (assay): Kinase panel enzymatic inhibition assay (Nanosyn)
What all share (format): biochemical

One test deals with T1, BLK (Homo sapiens, UniProt P51451).
T1 construct: purchased Nanosyn (contract screening)
The note with it: compound 5 μM; ATP at Km; 30-minute pre-incubation. An outline of the steps: (§1)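 Read-out is percent inhibition or IC50, obtained by mobility shift, ADP detection or time-resolved fluorescence detection. Each kinase was run with ATP at its Km, and compound at 5 μM was pre-incubated for 30 minutes.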

The target in another test is T2, DDR2 (Homo sapiens, UniProt Q16832).
T2 construct: purchased Nanosyn (contract screening)
T2 sequence (Q16832 22-855): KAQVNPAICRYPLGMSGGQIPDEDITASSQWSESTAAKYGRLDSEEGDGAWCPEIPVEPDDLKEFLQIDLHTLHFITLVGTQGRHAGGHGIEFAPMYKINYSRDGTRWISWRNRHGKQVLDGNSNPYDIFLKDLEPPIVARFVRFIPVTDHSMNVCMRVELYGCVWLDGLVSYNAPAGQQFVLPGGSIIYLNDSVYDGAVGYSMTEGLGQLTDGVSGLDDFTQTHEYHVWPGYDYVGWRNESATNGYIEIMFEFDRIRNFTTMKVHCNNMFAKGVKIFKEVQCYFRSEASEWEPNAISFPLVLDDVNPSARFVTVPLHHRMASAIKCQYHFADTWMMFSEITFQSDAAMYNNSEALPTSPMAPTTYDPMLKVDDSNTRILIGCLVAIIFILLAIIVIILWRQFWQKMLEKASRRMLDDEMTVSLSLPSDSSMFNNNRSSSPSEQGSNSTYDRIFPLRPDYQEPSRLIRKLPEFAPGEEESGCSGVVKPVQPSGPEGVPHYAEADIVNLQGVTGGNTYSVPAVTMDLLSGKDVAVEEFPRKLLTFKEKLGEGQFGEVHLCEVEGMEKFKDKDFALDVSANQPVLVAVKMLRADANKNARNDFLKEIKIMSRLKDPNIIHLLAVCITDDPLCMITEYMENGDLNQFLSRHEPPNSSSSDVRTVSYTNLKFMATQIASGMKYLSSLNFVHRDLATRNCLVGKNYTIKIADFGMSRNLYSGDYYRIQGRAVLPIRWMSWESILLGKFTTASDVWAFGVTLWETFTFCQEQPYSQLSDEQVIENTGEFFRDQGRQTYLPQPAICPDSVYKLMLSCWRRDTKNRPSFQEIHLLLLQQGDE
The note with it: ATP at Km, 30-minute pre-incubation; for inhibition at 5 µM: compound 5 μM; for IC50: read-out: kinase inhibition in terms of IC50, DDR2. The procedure, abridged:
as §1

The target in a further test is T3, Abl2 (Homo sapiens, UniProt P42684).
T3 construct: purchased Nanosyn (contract screening)
T3 sequence (P42684 whole entry): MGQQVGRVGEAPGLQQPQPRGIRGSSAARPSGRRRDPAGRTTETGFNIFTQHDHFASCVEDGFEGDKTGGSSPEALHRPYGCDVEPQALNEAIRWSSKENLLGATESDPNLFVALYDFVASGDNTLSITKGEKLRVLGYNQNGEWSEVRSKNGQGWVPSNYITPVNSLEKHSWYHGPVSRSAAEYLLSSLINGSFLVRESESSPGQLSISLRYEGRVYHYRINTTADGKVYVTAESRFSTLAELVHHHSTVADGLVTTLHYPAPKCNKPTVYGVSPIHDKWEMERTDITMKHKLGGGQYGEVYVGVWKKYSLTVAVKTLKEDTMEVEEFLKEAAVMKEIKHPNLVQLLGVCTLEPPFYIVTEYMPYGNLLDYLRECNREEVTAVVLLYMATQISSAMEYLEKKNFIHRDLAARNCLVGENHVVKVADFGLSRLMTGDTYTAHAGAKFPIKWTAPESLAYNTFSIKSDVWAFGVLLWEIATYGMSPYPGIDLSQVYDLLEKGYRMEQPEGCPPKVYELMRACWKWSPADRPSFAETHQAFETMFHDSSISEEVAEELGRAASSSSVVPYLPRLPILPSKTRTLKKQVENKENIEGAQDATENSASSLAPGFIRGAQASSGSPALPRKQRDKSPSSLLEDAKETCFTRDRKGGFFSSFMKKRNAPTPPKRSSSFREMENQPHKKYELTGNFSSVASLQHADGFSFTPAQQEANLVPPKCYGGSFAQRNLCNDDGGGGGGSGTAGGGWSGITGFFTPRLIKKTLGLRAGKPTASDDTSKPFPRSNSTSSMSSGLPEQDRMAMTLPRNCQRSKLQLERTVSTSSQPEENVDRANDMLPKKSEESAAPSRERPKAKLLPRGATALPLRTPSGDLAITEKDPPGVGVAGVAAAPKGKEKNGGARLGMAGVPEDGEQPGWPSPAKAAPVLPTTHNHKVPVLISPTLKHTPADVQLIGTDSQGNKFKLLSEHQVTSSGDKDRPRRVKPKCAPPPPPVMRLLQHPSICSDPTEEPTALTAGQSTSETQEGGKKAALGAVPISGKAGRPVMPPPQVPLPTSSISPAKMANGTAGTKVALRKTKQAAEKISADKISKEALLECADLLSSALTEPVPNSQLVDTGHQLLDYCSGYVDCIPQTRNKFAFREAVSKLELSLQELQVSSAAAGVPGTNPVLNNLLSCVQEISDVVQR
To be noted: compound 5 μM; ATP at Km; 30-minute pre-incubation. An outline of the steps:
as §1

The next test concerns the target T4, PDGFRa (Homo sapiens, UniProt P16234).
T4 construct: Nanosyn (contract laboratory that ran the panel)
The note with it: compound 5 μM; ATP at Km; 30-minute pre-incubation. An outline of the steps:
as §1

A further test addresses T5, CSK (Homo sapiens, UniProt P41240).
T5 construct: purchased Nanosyn (contract screening)
The note with it: compound 5 μM; ATP at Km; 30-minute pre-incubation. The procedure, abridged: as §1

For a further test, the target named is T6, ERBB4 (Homo sapiens, UniProt Q15303).
T6 construct: purchased Nanosyn (contract screening)
The note with it: compound 5 μM; ATP at Km; 30-minute pre-incubation. The procedure, abridged:
as §1

Another test deals with T7, CRAF (Homo sapiens, UniProt P04049).
T7 construct: purchased Nanosyn (contract screening)
To be noted: compound 5 μM; ATP at Km; 30-minute pre-incubation. An outline of the steps:
as §1

In another test the target is T8, HCK (Homo sapiens, UniProt P08631).
T8 construct: purchased Nanosyn (contract screening)
T8 sequence (P08631 whole entry): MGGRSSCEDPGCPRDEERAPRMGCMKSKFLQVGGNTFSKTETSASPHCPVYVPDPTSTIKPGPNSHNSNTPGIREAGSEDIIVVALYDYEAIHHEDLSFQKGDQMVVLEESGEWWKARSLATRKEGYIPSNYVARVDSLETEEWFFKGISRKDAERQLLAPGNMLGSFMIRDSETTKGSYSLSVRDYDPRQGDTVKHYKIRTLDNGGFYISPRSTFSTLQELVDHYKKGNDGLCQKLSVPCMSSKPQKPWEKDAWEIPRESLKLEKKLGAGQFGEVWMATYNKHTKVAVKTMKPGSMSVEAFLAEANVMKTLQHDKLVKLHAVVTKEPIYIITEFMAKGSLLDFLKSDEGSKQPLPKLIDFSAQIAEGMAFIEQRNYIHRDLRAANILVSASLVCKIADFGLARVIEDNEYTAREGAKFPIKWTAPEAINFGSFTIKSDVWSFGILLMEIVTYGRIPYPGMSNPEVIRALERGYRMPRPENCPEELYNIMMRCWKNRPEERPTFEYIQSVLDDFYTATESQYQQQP
The note with it: compound 5 μM; ATP at Km; 30-minute pre-incubation. The procedure, abridged: as §1

A further test concerns the target T9, HGK (Homo sapiens, UniProt O95819).
T9 construct: purchased Nanosyn (contract screening)
The note with it: compound 5 μM; ATP at Km; 30-minute pre-incubation. An outline of the steps:
as §1

The test system of another test is EPH. To be noted: compound 5 μM; ATP at Km; 30-minute pre-incubation. An outline of the steps: as §1
The next test concerns the target T10, COT1 (Homo sapiens, UniProt P41279).
T10 construct: purchased Nanosyn (contract screening)
To be noted: compound 5 μM; ATP at Km; 30-minute pre-incubation. The procedure, abridged:
as §1

A further test deals with T11, FYN (Homo sapiens, UniProt P06241).
T11 construct: purchased Nanosyn (contract screening)
To be noted: compound 5 μM; ATP at Km; 30-minute pre-incubation. An outline of the steps: as §1

The target of another test is T12, MAP4K2 (Homo sapiens, UniProt Q12851).
T12 construct: purchased Nanosyn (contract screening)
T12 sequence (Q12851 1-820): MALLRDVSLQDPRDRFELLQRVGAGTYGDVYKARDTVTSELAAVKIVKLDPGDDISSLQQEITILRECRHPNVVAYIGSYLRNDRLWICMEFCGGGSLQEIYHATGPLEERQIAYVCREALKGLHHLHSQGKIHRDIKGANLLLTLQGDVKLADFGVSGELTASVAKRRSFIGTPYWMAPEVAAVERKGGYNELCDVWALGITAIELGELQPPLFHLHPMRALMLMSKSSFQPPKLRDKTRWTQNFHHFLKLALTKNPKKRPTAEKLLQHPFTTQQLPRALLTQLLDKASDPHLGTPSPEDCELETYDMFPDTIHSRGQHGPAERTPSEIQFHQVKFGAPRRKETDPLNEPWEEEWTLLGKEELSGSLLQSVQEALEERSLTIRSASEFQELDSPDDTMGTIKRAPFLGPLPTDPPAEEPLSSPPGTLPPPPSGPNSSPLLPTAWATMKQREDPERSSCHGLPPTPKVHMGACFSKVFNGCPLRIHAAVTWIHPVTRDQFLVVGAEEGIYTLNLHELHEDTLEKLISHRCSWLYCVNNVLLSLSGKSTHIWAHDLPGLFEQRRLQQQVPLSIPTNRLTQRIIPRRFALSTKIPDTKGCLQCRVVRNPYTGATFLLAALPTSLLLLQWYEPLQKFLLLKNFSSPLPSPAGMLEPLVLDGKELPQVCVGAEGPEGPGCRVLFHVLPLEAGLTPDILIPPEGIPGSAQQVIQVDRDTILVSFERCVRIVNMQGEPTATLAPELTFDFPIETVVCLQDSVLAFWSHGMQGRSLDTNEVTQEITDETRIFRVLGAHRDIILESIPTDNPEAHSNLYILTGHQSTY
The note with it: compound 5 μM; ATP at Km; 30-minute pre-incubation. An outline of the steps:
as §1

The next test deals with T13, LYNa (Homo sapiens, UniProt P07948).
T13 construct: purchased Nanosyn (contract screening)
The note with it: compound 5 μM; ATP at Km; 30-minute pre-incubation. An outline of the steps:
as §1

A further test deals with T14, PLK1 (Homo sapiens, UniProt P53350).
T14 construct: Nanosyn (contract laboratory that ran the panel)
T14 sequence (P53350 whole entry): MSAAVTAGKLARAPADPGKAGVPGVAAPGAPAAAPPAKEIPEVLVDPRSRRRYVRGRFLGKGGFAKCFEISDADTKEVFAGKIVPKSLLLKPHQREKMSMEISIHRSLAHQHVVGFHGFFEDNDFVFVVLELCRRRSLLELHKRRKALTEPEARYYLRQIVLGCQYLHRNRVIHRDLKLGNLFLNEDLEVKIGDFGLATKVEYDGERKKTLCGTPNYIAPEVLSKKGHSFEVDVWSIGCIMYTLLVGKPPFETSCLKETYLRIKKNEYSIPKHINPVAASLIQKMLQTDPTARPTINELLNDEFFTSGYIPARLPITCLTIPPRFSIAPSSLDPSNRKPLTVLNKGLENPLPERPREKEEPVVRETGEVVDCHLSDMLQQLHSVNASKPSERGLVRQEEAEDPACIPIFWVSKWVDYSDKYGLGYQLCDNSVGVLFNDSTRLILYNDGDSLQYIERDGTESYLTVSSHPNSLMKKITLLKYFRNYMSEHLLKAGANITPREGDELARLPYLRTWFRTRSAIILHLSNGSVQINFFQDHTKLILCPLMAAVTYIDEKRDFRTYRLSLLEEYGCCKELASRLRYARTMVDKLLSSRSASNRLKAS
To be noted: ATP at Km; 30-minute pre-incubation; read-out: kinase inhibition in terms of IC50, PLK1. An outline of the steps: as §1

SMILES strings stand for the structures.

T1 sequence (P51451 whole entry): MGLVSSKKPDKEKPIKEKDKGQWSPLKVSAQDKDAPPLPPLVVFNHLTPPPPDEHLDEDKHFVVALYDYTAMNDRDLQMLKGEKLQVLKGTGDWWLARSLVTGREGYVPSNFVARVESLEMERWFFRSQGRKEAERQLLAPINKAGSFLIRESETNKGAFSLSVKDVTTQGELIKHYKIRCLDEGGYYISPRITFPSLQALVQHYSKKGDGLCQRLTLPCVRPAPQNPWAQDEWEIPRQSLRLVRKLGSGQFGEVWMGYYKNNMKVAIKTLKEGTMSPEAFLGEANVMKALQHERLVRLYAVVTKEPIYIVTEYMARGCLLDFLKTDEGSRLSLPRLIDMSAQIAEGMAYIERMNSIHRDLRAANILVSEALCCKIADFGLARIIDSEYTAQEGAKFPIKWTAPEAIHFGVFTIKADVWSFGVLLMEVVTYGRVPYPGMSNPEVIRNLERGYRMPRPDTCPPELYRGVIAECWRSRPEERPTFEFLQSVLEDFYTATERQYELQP
T4 sequence (P16234 24-1089): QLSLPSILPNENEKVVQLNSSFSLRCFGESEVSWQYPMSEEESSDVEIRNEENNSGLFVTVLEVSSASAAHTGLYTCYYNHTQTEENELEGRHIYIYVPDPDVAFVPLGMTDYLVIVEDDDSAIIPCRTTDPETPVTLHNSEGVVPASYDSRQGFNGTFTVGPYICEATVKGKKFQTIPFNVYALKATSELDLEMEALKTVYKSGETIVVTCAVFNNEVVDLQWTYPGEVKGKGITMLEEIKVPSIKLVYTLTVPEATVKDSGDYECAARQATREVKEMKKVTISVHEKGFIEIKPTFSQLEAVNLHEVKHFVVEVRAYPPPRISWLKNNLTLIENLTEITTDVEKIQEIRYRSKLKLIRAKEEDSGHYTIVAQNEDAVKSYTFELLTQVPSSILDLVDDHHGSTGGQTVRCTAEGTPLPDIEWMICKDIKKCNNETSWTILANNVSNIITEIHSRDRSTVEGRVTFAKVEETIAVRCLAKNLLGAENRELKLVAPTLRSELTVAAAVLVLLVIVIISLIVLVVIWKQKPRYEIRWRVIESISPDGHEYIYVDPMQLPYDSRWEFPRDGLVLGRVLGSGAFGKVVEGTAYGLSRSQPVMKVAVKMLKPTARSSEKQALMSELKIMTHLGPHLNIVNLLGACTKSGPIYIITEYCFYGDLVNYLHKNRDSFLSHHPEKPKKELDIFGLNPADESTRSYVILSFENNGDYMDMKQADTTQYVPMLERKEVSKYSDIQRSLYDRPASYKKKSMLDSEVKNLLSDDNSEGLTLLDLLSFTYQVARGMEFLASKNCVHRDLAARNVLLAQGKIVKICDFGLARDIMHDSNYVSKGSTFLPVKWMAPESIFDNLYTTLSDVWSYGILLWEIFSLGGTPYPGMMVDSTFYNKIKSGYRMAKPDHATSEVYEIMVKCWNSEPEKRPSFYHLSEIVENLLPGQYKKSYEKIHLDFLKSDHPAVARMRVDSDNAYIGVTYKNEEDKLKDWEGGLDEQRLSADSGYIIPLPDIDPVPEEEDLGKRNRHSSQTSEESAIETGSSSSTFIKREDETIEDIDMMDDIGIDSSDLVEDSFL
T5 sequence (P41240 whole entry): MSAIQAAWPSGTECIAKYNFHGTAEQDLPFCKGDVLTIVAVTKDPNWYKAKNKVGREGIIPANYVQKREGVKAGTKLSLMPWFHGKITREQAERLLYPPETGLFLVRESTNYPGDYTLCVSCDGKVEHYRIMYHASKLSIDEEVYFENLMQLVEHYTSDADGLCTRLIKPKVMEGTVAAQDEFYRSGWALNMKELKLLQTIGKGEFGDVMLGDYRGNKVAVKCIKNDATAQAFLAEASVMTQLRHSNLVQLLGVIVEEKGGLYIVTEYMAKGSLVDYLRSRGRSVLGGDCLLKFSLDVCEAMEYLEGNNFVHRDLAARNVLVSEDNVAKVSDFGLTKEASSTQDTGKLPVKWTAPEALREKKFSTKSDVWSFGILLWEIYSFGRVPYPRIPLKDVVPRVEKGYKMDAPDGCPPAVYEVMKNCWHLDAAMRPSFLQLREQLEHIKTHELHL
T10 sequence (P41279 whole entry): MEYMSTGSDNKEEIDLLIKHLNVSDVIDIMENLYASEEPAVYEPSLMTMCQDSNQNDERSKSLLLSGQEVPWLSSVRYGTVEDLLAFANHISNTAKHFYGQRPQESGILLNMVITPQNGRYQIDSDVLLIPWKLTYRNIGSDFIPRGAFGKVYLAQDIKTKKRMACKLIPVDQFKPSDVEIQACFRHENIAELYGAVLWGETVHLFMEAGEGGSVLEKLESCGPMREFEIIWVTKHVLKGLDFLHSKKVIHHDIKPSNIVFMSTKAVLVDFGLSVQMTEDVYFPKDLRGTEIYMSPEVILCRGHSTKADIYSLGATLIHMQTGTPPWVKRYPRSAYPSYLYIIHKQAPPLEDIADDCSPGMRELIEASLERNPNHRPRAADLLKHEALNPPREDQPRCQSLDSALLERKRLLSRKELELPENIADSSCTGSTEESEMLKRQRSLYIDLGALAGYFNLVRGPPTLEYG

As for `Cc1ccc(NC(=O)c2cc(S(C)(=O)=O)n(-c3ccc(F)cc3)n2)cc1C#Cc1cnc2cccnn12` [Ex14, 1-(4-fluorophenyl)-N-(3-(imidazo[1,2-b]pyridazin-3-ylethynyl)-4-methylphenyl)-5-(methylsulfonyl)-1H-pyrazole-3-carboxamide], the inhibition (as a rule, the change of the read-out against control, counted positive when it falls) at 5 µM was 80 to 89% on BLK; at least 95% against DDR2; at least 95% against Abl2; below 79% against PDGFRa; 80 to 89% at CSK; below 79% against ERBB4. Further, the inhibition at 5 µM was at least 95% against CRAF; 90 to 94% against HCK; below 79% on HGK; below 79% against COT1; 90 to 94% at FYN; below 79% on MAP4K2. For the same compound, the inhibition at 5 µM on LYNa is at least 95%. Further, the “kinase inhibition, EPH” value with EPH was “D (D=79% and less)”.

As to `CCOC(=O)Nc1cn2nc(Nc3cc(NC(=O)c4cc(S(C)(=O)=O)n(-c5ccc(F)cc5)n4)ccc3C)ccc2n1` [Ex15, ethyl (6-((5-(1-(4-fluorophenyl)-5-(methylsulfonyl)-1H-pyrazole-3-carboxamido)-2-methylphenyl)amino)imidazo[1,2-b]pyridazin-2-yl)carbamate], the inhibition at 5 µM at BLK was below 79%; against DDR2 it was at least 95%; against Abl2, at least 95%; at PDGFRa it was at least 95%; on CSK it was 80 to 89%; at ERBB4 it was below 79%. For the same compound, the inhibition at 5 µM is at least 95% against CRAF; 80 to 89% against HCK; below 79% on HGK; below 79% on COT1; at least 95% on FYN; below 79% against MAP4K2. Besides, on LYNa, the inhibition at 5 µM is at least 95%. Besides, the “kinase inhibition, EPH” value in the test on EPH is “D (D=79% and less)”.

Take `CNC(=O)c1cc(Oc2ccc(NC(=O)c3cc(S(C)(=O)=O)n(-c4ccc(F)cc4)n3)c(F)c2)ccn1` [Ex17, 4-(3-fluoro-4-(1-(4-fluorophenyl)-5-(methylsulfonyl)-1H-pyrazole-3-carboxamido)phenoxy)-N-methylpicolinamide]: the inhibition at 5 µM on BLK, at DDR2, on Abl2, at PDGFRa, against CSK and at ERBB4 was below 79% throughout. Further, the inhibition at 5 µM against CRAF, against HCK, against HGK, against COT1, on FYN and against MAP4K2 was below 79% each time. This compound also came in with an inhibition at 5 µM at LYNa below 79%. The “kinase inhibition, EPH” value with EPH was “D (D=79% and less)”.

For `CCOC(=O)Nc1cn2nc(Nc3cc(NC(=O)c4cc([S+](C)[O-])n(-c5ccc(F)cc5)n4)ccc3C)ccc2n1` (stereo not shown) [Ex18, ethyl (6-((5-(1-(4-fluorophenyl)-5-(methylsulfinyl)-1H-pyrazole-3-carboxamido)-2-methylphenyl)amino)imidazo[1,2-b]pyridazin-2-yl)carbamate], the inhibition at 5 µM against BLK was below 79%; at DDR2, at least 95%; on Abl2 it was 80 to 89%; against PDGFRa, 90 to 94%; on CSK it was below 79%; against ERBB4 it was below 79%. The inhibition at 5 µM against CRAF is at least 95%; at HCK, at least 95%; on HGK, below 79%; at COT1 it was below 79%; on FYN, at least 95%; against MAP4K2, below 79%. This compound also returned an inhibition at 5 µM against LYNa of at least 95%. Also, in the test on EPH, the “kinase inhibition, EPH” value was “D (D=79% and less)”.

On to `COc1cc2nccc(Oc3ccc(NC(=O)c4cc(S(C)(=O)=O)n(-c5ccc(F)cc5)n4)c(F)c3)c2cc1OC` [Ex71, N-(4-((6,7-dimethoxyquinolin-4-yl)oxy)-2-fluorophenyl)-1-(4-fluorophenyl)-5-(methylsulfonyl)-1H-pyrazole-3-carboxamide], for which the results for the IC50 at DDR2 and at PLK1 were below 0.5 µM and at least 10 µM, respectively.

As for `COc1cc2nccc(Oc3ccc(NC(=O)c4cc(S(C)(=O)=O)n(-c5ccc(F)cc5)n4)cc3)c2cc1OC` [Ex72, N-(4-((6,7-dimethoxyquinolin-4-yl)oxy)phenyl)-1-(4-fluorophenyl)-5-(methylsulfonyl)-1H-pyrazole-3-carboxamide], the IC50 – broadly, the concentration at which inhibition is half-maximal – at PLK1 was at least 10 µM.

For `COc1cc2nccc(Oc3ccc(NC(=O)c4cc(S(C)(=O)=O)n(-c5ccc(F)cc5)n4)cc3F)c2cc1OC` [Ex73, N-(4-((6,7-dimethoxyquinolin-4-yl)oxy)-3-fluorophenyl)-1-(4-fluorophenyl)-5-(methylsulfonyl)-1H-pyrazole-3-carboxamide], the IC50 was below 0.5 µM at DDR2 and at least 10 µM at PLK1.
